Where a name gives a salt, the structure may show the parent alone.
SMILES	melting point
CS(=O)(=O)O.Cn1c(C(=O)NC(=N)N)cc2c(C(F)(F)F)cc(P(=O)(O)O)cc21	286 °C (dec.)
CS(=O)(=O)O.Cn1c(C(=O)NC(=N)N)cc2c(C(F)(F)F)ccc(P(=O)(O)O)c21	258 °C (dec.)
Br.Cn1c(C(=O)NC(=N)N)cc2c(C(F)(F)F)ccc(CCP(=O)(O)O)c21	234 °C (dec.)
Cc1c(OS(=O)(=O)O)ccc2c1cc(C(=O)NC(=N)N)n2C (as salt: sulfate) [Example 1, 2-[[[amino(imino)methyl]amino]-carbonyl]-1,4-dimethyl-1H-indol-5-yl Hydrogen Sulfate]	267 to 268 °C (dec.)
Cc1cc(OS(=O)(=O)O)cc2c1cc(C(=O)NC(=N)N)n2C (as salt: sulfate) [Example 2, 2-[[[Amino(imino)methyl]amino]carbonyl]-1,4-dimethyl-1H-indol-6-yl Hydrogen Sulfate]	303 to 304 °C (dec.)
Cn1c(C(=O)NC(=N)N)cc2cccc(OS(=O)(=O)O)c21 (as salt: sulfate) [Example 3, 2-[[[Amino(imino)methyl]amino]carbonyl]-1-methyl-1H-indol-7-yl Hydrogen Sulfate]	279 to 280 °C (dec.)
Cc1ccc(OS(=O)(=O)O)c2c1cc(C(=O)NC(=N)N)n2C (as salt: sulfate) [Example 4, 2-[[[amino(imino)methyl]amino]-carbonyl]-1,4-dimethyl-1H-indol-7-yl Hydrogen Sulfate]	> 315 °C (dec.)
Cn1c(C(=O)NC(=N)N)cc2c(OS(=O)(=O)O)cccc21 (as salt: sulfate) [Example 5, 2-[[[Amino(imino)methyl]amino]carbonyl]-1-methyl-1H-indol-4-yl Hydrogen Sulfate]	249 to 250 °C (dec.)
Cn1c(C(=O)NC(=N)N)cc2cc(OS(=O)(=O)O)ccc21 (as salt: sulfate) [Example 6, 2-[[[Amino(imino)methyl]amino]carbonyl]-1-methyl-1H-indol-5-yl Hydrogen Sulfate]	280 to 281 °C (dec.)
Cn1c(C(=O)NC(=N)N)cc2ccc(OS(=O)(=O)O)cc21 (as salt: sulfate) [Example 7, 2-[[[Amino(imino)methyl]amino]carbonyl]-1-methyl-1H-indol-6-yl Hydrogen Sulfate]	283 to 284 °C (dec.)
Cn1c(C(=O)NC(=N)N)cc2c(Cl)cc(OS(=O)(=O)O)cc21 (as salt: sulfate) [Example 11, 2-[[[Amino(imino)methyl]amino]carbonyl]-4-chloro-1-methyl-1H-indol-6-yl Hydrogen Sulfate]	298 °C (dec.)
Cn1c(C(=O)NC(=N)N)cc2c(C(F)(F)F)cc(OS(=O)(=O)O)cc21 (as salt: sulfate) [Example 12, 2-[[[Amino(imino)methyl]amino]carbonyl]-1-methyl-4-(trifluoromethyl)-1H-indol-6-yl Hydrogen Sulfate]	300 °C (dec.)
Cn1c(C(=O)NC(=N)N)cc2c(C(F)(F)F)ccc(OS(=O)(=O)O)c21 (as salt: sulfate) [Example 13, 2-[[[Amino(imino)methyl]amino]carbonyl]-1-methyl-4-(trifluoromethyl)-1H-indol-7-yl Hydrogen Sulfate]	298 °C (dec.)
Cn1c(C(=O)NC(=N)N)cc2c(Cl)ccc(OS(=O)(=O)O)c21 (as salt: sulfate) [Example 14, 2-[[[Amino(imino)methyl]amino]carbonyl]-4-chloro-1-methyl-1H-indol-7-yl Hydrogen Sulfate]	338 °C (dec.)
CS(=O)(=O)O.Cn1c(C(=O)NC(=N)N)cc2ccc(O[C@@H]3O[C@H](C(=O)O)[C@@H](O)[C@H](O)[C@H]3O)cc21 [Example 8, [2-[[[amino(imino)methyl]amino]-carbonyl]-1-methyl-1H-indol-6-yl] β-D-glucopyranosideuronic Acid Methanesulfonate]	170 to 171 °C
CS(=O)(=O)O.Cn1c(C(=O)NC(=N)N)cc2cc(O[C@@H]3O[C@H](C(=O)O)[C@@H](O)[C@H](O)[C@H]3O)ccc21 [Example 9, [2-[[[Amino(imino)methyl]amino]carbonyl]-1-methyl-1H-indol-5-yl] β-D-glucopyranosideuronic Acid Methanesulfonate]	219 °C (dec.)
Cn1c(C(=O)NC(=N)N)cc2c(C(F)(F)F)cc(CP(=O)(O)O)cc21 [Example 15, [2-[[[amino(imino)methyl]amino]-carbonyl]-1-methyl-4-(trifluoromethyl)-1H-indol-6-yl]-methylphosphonic Acid]	231 to 266 °C (dec.)
Cn1c(C(=O)NC(=N)N)cc2c(C(F)(F)F)ccc(CP(=O)(O)O)c21 [Example 16, [2-[[[Amino(imino)methyl]amino]carbonyl]-1-methyl-4-(trifluoromethyl)-1H-indol-7-yl]methylphosphonic Acid]	249 to 265 °C (dec.)
Cn1c(C(=O)NC(=N)N)cc2c(Cl)cc(CP(=O)(O)O)cc21 [Example 17, [2-[[[Amino(imino)methyl]amino]carbonyl]-4-chloro-1-methyl-1H-indol-6-yl]methylphosphonic Acid]	265 to 282 °C (dec.)

SMILES	melting point
Cn1c(C(=O)NC(=N)N)cc2c(Cl)ccc(CP(=O)(O)O)c21 [Example 18, [2-[[[Amino(imino)methyl]amino]carbonyl]-4-chloro-1-methyl-1H-indol-7-yl]methylphosphonic Acid]	273 to 284 °C (dec.)
Cc1ccc(CP(=O)(O)O)c2c1cc(C(=O)NC(=N)N)n2C [Example 20, [2-[[[Amino(imino)methyl]amino]carbonyl]-1,4-dimethyl-1H-indol-7-yl]methylphosphonic Acid]	239 to 280 °C (dec.)
Cn1c(C(=O)NC(=N)N)cc2c(C(F)(F)F)cc(OCC(=O)O)cc21 [Example 21, [[2-[[[amino(imino)methyl]-amino]carbonyl]-1-methyl-4-(trifluoromethyl)-1H-indol-6-yl]oxy]acetic Acid]	250 to 266 °C (dec.)
Cn1c(C(=O)NC(=N)N)cc2c(C(F)(F)F)ccc(OCC(=O)O)c21 [Example 22, [[2-[[[Amino(imino)methyl]amino]carbonyl]-1-methyl-4-(trifluoromethyl)-1H-indol-7-yl]oxy]acetic Acid]	224 to 233 °C (dec.)
Cn1c(C(=O)NC(=N)N)cc2c(Cl)cc(OCC(=O)O)cc21 [Example 23, [[2-[[[Amino(imino)methyl]amino]carbonyl]-4-chloro-1-methyl-1H-indol-6-yl]oxy]acetic Acid]	257 to 260 °C (dec.)
Cn1c(C(=O)NC(=N)N)cc2c(Cl)ccc(OCC(=O)O)c21 [Example 24, [[2-[[[Amino(imino)methyl]amino]carbonyl]-4-chloro-1-methyl-1H-indol-7-yl]oxy]acetic Acid]	210 to 225 °C (dec.)
Cc1cc(OCC(=O)O)cc2c1cc(C(=O)NC(=N)N)n2C [Example 25, [[2-[[[Amino(imino)methyl]amino]carbonyl]-1,4-dimethyl-1H-indol-6-yl]oxy]acetic Acid]	260 to 270 °C (dec.)
Cc1ccc(OCC(=O)O)c2c1cc(C(=O)NC(=N)N)n2C [Example 26, [[2-[[[Amino(imino)methyl]amino]carbonyl]-1,4-dimethyl-1H-indol-7-yl]oxy]acetic Acid]	248 to 252 °C (dec.)
N=C(N)NC(=O)c1cc2c(Cl)cccc2n1CCCS(=O)(=O)O [Example 27, 3-[2-[[[amino(imino)methyl]-amino]carbonyl]-4-chloro-1H-indol-1-yl]-1-propanesulfonic Acid]	281 °C (dec.)
N=C(N)NC(=O)c1cc2c(C(F)(F)F)cccc2n1CCCS(=O)(=O)O [Example 28, 3-[2-[[[Amino(imino)methyl]amino]carbonyl]-4-(trifluoromethyl)-1H-indol-1-yl]-1-propanesulfonic Acid]	> 300 °C
Cc1cccc2c1cc(C(=O)NC(=N)N)n2CCCS(=O)(=O)O [Example 29, 3-[2-[[[Amino(imino)methyl]amino]carbonyl]-4-methyl-1H-indol-1-yl]-1-propanesulfonic Acid]	298 °C (dec.)
Cn1c(C(=O)NC(=N)N)cc2c(C(F)(F)F)ccc(OCCS(=O)(=O)O)c21 [Example 31, 2-[[2-[[[Amino(imino)methyl]amino]carbonyl]-1-methyl-4-(trifluoromethyl)-1H-indol-7-yl]oxy]-ethanesulfonic Acid]	275 °C (dec.)
Cn1c(C(=O)NC(=N)N)cc2c(C(F)(F)F)ccc(OCCCS(=O)(=O)O)c21 [Example 33, 3-[[2-[[[Amino(imino)methyl]amino]carbonyl]-1-methyl-4-(trifluoromethyl)-1H-indol-7-yl]oxy]-1-propanesulfonic Acid]	≥ 272 °C (dec.)
Cn1c(C(=O)NC(=N)N)cc2c(Cl)cc(OCCCS(=O)(=O)O)cc21 [Example 34, 3-[[2-[[[Amino(imino)methyl]amino]carbonyl]-4-chloro-1-methyl-1H-indol-6-yl]oxy]-1-propanesulfonic Acid]	325 °C (dec.)
Cc1cc(OCCCS(=O)(=O)O)cc2c1cc(C(=O)NC(=N)N)n2C [Example 35, 3-[[2-[[[Amino(imino)methyl]amino]carbonyl]-1,4-dimethyl-1H-indol-6-yl]oxy]-1-propanesulfonic Acid]	290 °C (dec.)
Cc1ccc(OCCCS(=O)(=O)O)c2c1cc(C(=O)NC(=N)N)n2C [Example 36, 3-[[2-[[[Amino(imino)methyl]amino]carbonyl]-1,4-dimethyl-1H-indol-7-yl]oxy]-1-propanesulfonic Acid]	≥ 278 °C (dec.)
Cn1c(C(=O)NC(=N)N)cc2c(C(F)(F)F)cc(CS(=O)(=O)O)cc21 [Example 37, [2-[[[amino(imino)methyl]amino]-carbonyl]-1-methyl-4-(trifluoromethyl)-1H-indol-6-yl]-methanesulfonic Acid]	≥ 300 °C
Cn1c(C(=O)NC(=N)N)cc2c(C(F)(F)F)ccc(CS(=O)(=O)O)c21 [Example 38, [2-[[[Amino(imino)methyl]amino]carbonyl]-1-methyl-4-(trifluoromethyl)-1H-indol-7-yl]methanesulfonic Acid]	≥ 300 °C

— patent US6734205B2, “Substituted guanidine derivatives” (Sumitomo Pharmaceuticals Company Limited, priority 1999, dated 2004)
